Measurements: US11273172B2, “Synergistic combination of oligonucleotides and chemotherapeutic for treating cancer” (THE BOARD OF TRUSTEES OF THE UNIVERSITY OF ILLINOIS, priority 2017, dated 2022)
Values joined by “and” are separate entries in the source; they are usually repeats but may differ in a detail not shown here. Equal entries are not always repeated.

What was measured:
Assay in all cases: MTT cell death assay, chemotherapeutic with and without MADD siRNA knockdown
Format in all cases: cell-based
[1] = system: OVCAR3 ovarian cancer cells; settings: siRNA 10 nM
Protocol: (§1) Cells are cultured and maintained at 37° C. in a humidified atmosphere containing 5% CO2 as described above. On Day 0, Cells are seeded in […] tissue culture dishes (Corning; Cat Number: 353003) to attain 60-70% confluence. In parallel, cells are also seeded in one 96-well plate (Corning; Cat number: 353072) for analysis of survival before reseeding. After 12-18 hours (Day 1), cells are transfected with Scramble or MADD siRNA at 10 nM concentration. The sequences of siRNAs (double-stranded) used are:
(§2) On Day 4, when cells are properly adhered and retained their shape in 96-well plates, drugs are added. All drugs are diluted in complete media on the same day prior to the addition to the cells. In untreated cells, media is replaced with complete media. Two hundred μl volume of media (with or without drugs) is used for the drug treatment assay. Plates are incubated 24 hours, 48 hours and 72 hours at 37° C. in humidified CO2 incubator.
(§3) An MTT assay is performed to determine relative survival after drug treatment as described above. MTT (3-[4,5-Dimethylthiazol-2-yl]-2,5-diphenyltetrazolium bromide; Thiazolyl blue) is purchased from Sigma Aldrich (Cat number: M5655). MTT is dissolved in sterile DPBS at the concentration of 5 mg/ml and filtered through […] syringe filter (Corning; Cat number: 431220). Ten μl of MTT solution is added per well of 96-well plate. Plates are incubated for 2 hours at 37° C. in the humidified CO2 incubator. After 2 hours, media is aspirated using vacuum inside the biosafety hood. Purple colored crystals formed in viable cells are dissolved by adding 100 μl of Dimethyl sulfoxide (Thermo Fisher Scientific; Cat number D128-500) Plates are kept on shaker for 10 minutes for compete dissolution of crystals and absorbance is recorded at 595 nm using Bio-Rad iMark microplate reader. Data is analyzed in MICROSOFT EXCEL® software. Relative survival is calculated with respect to absorbance of control (untreated cells) to determine the effect of transfection as well as combination treatment.
(§4) Each data set takes into account any spontaneous cell death which is observed upon transfection with Scramble siRNA; the amount of spontaneous cell death from Scramble siRNA transfection (baseline) is subtracted from the amount of cell death observed in each siRNA transfection reaction to yield a Net Percent (Net %) cell death after accounting for Scrambled siRNA-induced cell death.
as §1, with “(double stranded)” for “(double-stranded)”
as §3, with “D128-500).” for “D128-500)”, “Relative survival is calculated with respect to absorbance of control (untreated cells) to determine the effect of transfection as well as combination treatment.” left out

H522 lung cancer cells = settings: siRNA 10 nM
Protocol: as §1, §2, §3, §4
as §1, with “(double stranded)” for “(double-stranded)”
as §3, with “D128-500).” for “D128-500)”, “Relative survival is calculated with respect to absorbance of control (untreated cells) to determine the effect of transfection as well as combination treatment.” left out

[2] = system: HCT116 colon cancer cells; settings: TRAIL 50 ng/ml, siRNA 10 nM, 48 hours post TRAIL treatment
Protocol: as §1, with “(double stranded)” for “(double-stranded)”
as §2, with “24 h,” for “24 hours,”, “48 h” for “48 hours”
as §3, §4

[3] = system: SKOV3 ovarian cancer cells; settings: TRAIL 50 ng/ml, siRNA 10 nM, 48 hours post TRAIL treatment
Protocol: as §1, with “(double stranded)” for “(double-stranded)”
as §2, with “24 h,” for “24 hours,”, “48 h” for “48 hours”
as §3, §4

[4] = system: CFPAC-1 pancreatic cancer cells; settings: siRNA 10 nM, 72 hours post TRAIL treatment
Protocol: as §1, with “(double stranded)” for “(double-stranded)”
as §2, with “24 h,” for “24 hours,”, “48 h” for “48 hours”
as §3, §4

[5] = Sorafinib 5 μM, 48 hours post Sorafinib treatment
[6] = Sorafinib 1.56 μM, 48 hours post Sorafinib treatment
[7] = Gemcitabine 0.0125 μM, 72 hours post Gemcitabine treatment
[8] = Gemcitabine 0.1 μM, 48 hours post Gemcitabine treatment
[9] = Gemcitabine 8.2 nM, 48 hours post Gemcitabine treatment
[10] = TRAIL 100 ng/ml, 48 hours post TRAIL treatment

| Molecule | Net % cell death after accounting for Scrambled siRNA [1, 5] | Observed % Cell death [1, 5] | Net % cell death after accounting for Scrambled siRNA (H522 lung cancer cells; [6]) | Observed % Cell death (H522 lung cancer cells; [6]) | Observed % Cell death [1, 7] | Observed % Cell death [1, 8] | Observed % Cell death (H522 lung cancer cells; [9]) | Observed % Cell death (H522 lung cancer cells; [10]) | Observed % Cell death [2] | Net % cell death after accounting for Scrambled siRNA [3] | Observed % Cell death [3] | Net % cell death after accounting for Scrambled siRNA ([4]; TRAIL 6.25 ng/ml) | Observed % Cell death ([4]; TRAIL 6.25 ng/ml) | Net % cell death after accounting for Scrambled siRNA ([4]; TRAIL 12.5 ng/ml) | Observed % Cell death ([4]; TRAIL 12.5 ng/ml) | Net % cell death after accounting for Scrambled siRNA [1, 7] | Net % cell death after accounting for Scrambled siRNA [1, 8] | Net % cell death after accounting for Scrambled siRNA (H522 lung cancer cells; [9]) | Net % cell death after accounting for Scrambled siRNA (H522 lung cancer cells; [10]) | Net % cell death after accounting for Scrambled siRNA [2] |
| --- | --- | --- | --- | --- | --- | --- | --- | --- | --- | --- | --- | --- | --- | --- | --- | --- | --- | --- | --- | --- |
| CNC(=O)c1cc(Oc2ccc(NC(=O)Nc3ccc(Cl)c(C(F)(F)F)c3)cc2)ccn1 [Sorafinib] | 17% | 17% | 0% | 0% |  |  |  |  |  |  |  |  |  |  |  |  |  |  |  |  |
| MADD siRNA: siRNA targeting exon 13L of the MADD splice variant of the IG20 gene; SEQ ID NO: 4, 5′-GAUUGUCAUAGAUUCGCCGTT-3′ (chemistry not given here) |  | 19% |  | 37% | 23% | 19% | 37% | 37% | 43% | 29% and 38 − 9 = 29% | 38% | 53% and 53 − 0 = 53% | 53% | 53% and 53 − 0 = 53% | 53% |  |  |  |  |  |
| Scrambled siRNA: non-specific Scramble siRNA, negative control; SEQ ID NO: 5, 5′-UUGCUAAGCGUCGGUCAAUTT-3′ (chemistry not given here) | 17 − 17 = 0% | 17% | 30 − 30 = 0% | 30% | 26% | 17% | 30% | 30% | 27% | 9 − 9 = 0% | 9% | 17 − 17 = 0% | 0% | 0 − 0 = 0% | 0% | 26 − 26 = 0% | 17 − 17 = 0% | 30 − 30 = 0% | 30 − 30 = 0% | 27 − 27 = 0% |
| TRAIL: cytotoxic protein which induces apoptosis in tumor cells, but not in normal cells (protein, UniProt P50591 1-281, looked up) Tumor necrosis factor ligand …: MAMMEVQGGPSLGQTCVLIVIFTVLLQSLCVAVTYVYFTNELKQMQDKYSKSGIACFLKEDDSYWDPNDEESMNSPCWQVKWQLRQLVRKMILRTSEETISTVQEKQQNISPLVRERGPQRVAAHITGTRGRSNTLSSPNSKNEKALGRKINSWESSRSGHSFLSNLHLRNGELVIHEKGFYYIYSQTYFRFQEEIKENTKNDKQMVQYIYKYTSYPDPILLMKSARNSCWSKDAEYGLYSIYQGGIFELKENDRIFVSVTNEHLIDMDHEASFFGAFLVG |  |  |  |  |  |  |  | 0% | 27% | 13% | 13% | 30% | 30% | 8% | 8% |  |  |  | 0% | 27% |
